{"source": "patent US9101640B2", "about": "“Use of Danshensu, Notoginsenoside R1 or their combination in preparation of medicaments for preventing and treating diseases caused by microcirculation disorder” (Tasly Pharmaceutical Group Co., Ltd., priority 2009, dated 2015)", "tested_on": "mesenteric venules", "test": "Diameters of mesenteric venules after I/R", "format": "in vivo", "conditions": "rat mesenteric I/R", "description": "The rats were anesthetized by intraperitoneal injection of pentobarbital sodium (30 mg/kg body weight (BW)). PE venous cannulas (#3) were cannulated into the right jugular of the rats and detained. The abdomen of each rat was incised in a length of 20-30 mm along the midline. The ileum near the ileocecal junctions was gently taken out and unfolded onto the object stage mounted with glass slides. The unfolded mesenteries were continuously dripped with Krebs-Ringer buffering solution at 37° C. The microcirculatory dynamics of the mesenteries was observed under white light (12V, 100 W) using an inverted biomicroscope (Diaphot TMD-2S, Nikon, Tokyo) placed in the thermostat at 37° C. Observation sites were selected under 20× object lens, and a video recording system with a time-displaying function was used to record what had been observed on S-VHS tape and preserved. […] Normal saline was administrated at 20 min before ischemia until the end of the observation by continuously intravenous drip via jugular at a dosage of 5 mg/kg/h. PE cannulas were used to ligate non-circulatory mesenteric arteries and veins, so as to observe the arteries and veins for 10 min, and then the ligation was lifted. Time was adjusted to zero and the microcirculatory dynamics under the same visual field was continuously observed for 60 min. DLA was administrated at 20 min before ischemia until the end of the observation by continuously intravenous drip via jugular at a dosage of 5 mg/kg/h. R1 was administrated at 20 min before ischemia until the end of the observation by continuously intravenous drip via jugular at a dosage of 5 mg/kg/h. The combination of DLA and R1 in a weight ratio of 4:1 was administrated at 20 min before ischemia until the end of the observation by continuously intravenous drip via jugular at a dosage of 5 mg/kg/h. The combination of DLA and R1 in a weight ratio of 1:1 was administrated at 20 min before ischemia until the end of the observation by continuously intravenous drip via jugular at a dosage of 5 mg/kg/h. […] Wherein, 6 rats in each group were taken out, these rats were used for observing the following aspects: the venular diameters; leukocytes rolling, adhesion, and emigration and DHR fluorescence intensities of the venular walls. […] Microcirculatory dynamics was continuously recorded using an inverted biomicroscope […] recording system (CC-090, Flovel, Tokyo) and SIT fluorescent camera (C-2400-08, Hamamatsu Photonics, Hamamatsu). 3 sites of the mesenteric venules were measured using Image-Pro Plus 5.0 software from the replayed CD records at the following time points: before ischemia and 1 min, 10 min, 20 min, 30 min, 40 min, 50 min and 60 min after the beginning of the reperfusion. The average diameters were calculated.", "note": "“Also recorded” adds a separate entry of the source."}
{"smiles": "CC(C)=CCC[C@](C)(O[C@@H]1O[C@H](CO)[C@@H](O)[C@H](O)[C@H]1O)[C@H]1CC[C@]2(C)[C@@H]1[C@H](O)C[C@@H]1[C@@]3(C)CC[C@H](O)C(C)(C)[C@@H]3[C@@H](O[C@@H]3O[C@H](CO)[C@@H](O)[C@H](O)[C@H]3O[C@@H]3OC[C@@H](O)[C@H](O)[C@H]3O)C[C@]12C", "note": "[R1, Notoginsenoside R1]", "values": [{"measurement": "effect on the diameters of the mesenteric venules after reperfusion", "setting": "post-administration, 5 mg/kg/h continuous i.v. drip from 20 min after ischemia (DLA: 10 min after I/R), 5 mg/kg", "result": "did not cause the significant changes; also recorded: have no significant inhibitory effects"}, {"measurement": "effect on the diameters of the mesenteric venules after reperfusion", "setting": "pre-administration, 5 mg/kg/h continuous i.v. drip from 20 min before ischemia, 60 min reperfusion, 5 mg/kg", "result": "did not cause the significant changes; also recorded: have no significant inhibitory effects"}]}
{"smiles": "O=C(O)C(O)Cc1ccc(O)c(O)c1", "note": "(stereo not shown) [DLA, 3,4-dihydroxyphenyl lactic acid]", "values": [{"measurement": "effect on the diameters of the mesenteric venules after reperfusion", "setting": "post-administration, 5 mg/kg/h continuous i.v. drip from 20 min after ischemia (DLA: 10 min after I/R)", "result": "did not cause the significant changes"}, {"measurement": "effect on the diameters of the mesenteric venules after reperfusion", "setting": "pre-administration, 5 mg/kg/h continuous i.v. drip from 20 min before ischemia, 60 min reperfusion", "result": "did not cause the significant changes"}]}
